Source: patent publication US11266655B2, “Methods and compositions for treating urea cycle disorders” (Camp4 Therapeutics Corporation, priority 2019, dated 2022)
Where two headings read alike, the source gives them in different places.

Experiments:
[1] = system: SLC25A15; test: RNA-seq of compound-treated primary human hepatocytes, SLC25A15 expression; type: cell-based; details: primary human hepatocytes, triplicate (Table 24, FIG. 16A-B)
[2] = system: CPS1; test: RNA-seq of compound-treated primary human hepatocytes, CPS1 expression; type: cell-based; details: primary human hepatocytes; for Relative CPS1 level vs Untreated (±Standard Deviation): triplicate (Table 19, FIG. 11); for CPS1 expression, Fold change (Log 2) vs untreated: RNA-seq
[3] = system: ASS1; test: RNA-seq of compound-treated primary human hepatocytes, ASS1 expression; type: cell-based; details: primary human hepatocytes, triplicate (Table 15, FIG. 7)
[4] = system: NAGS; type: cell-based, human; details: primary human hepatocytes, triplicate (Table 21, FIG. 13)
[5] = system: CPS1; test: JAK inhibitors at 0.3 and 3 μM in primary human hepatocytes, CPS1 mRNA fold change; type: cell-based; details: fold change vs DMSO
Description: (§1) Additional small molecules that inhibit JAK1, JAK2, JAK3, or a combination of the JAK proteins were tested in primary human hepatocytes as described in Example 2. JAK inhibitors were tested in triplicate at 0.3 μM and 3 μM. The results are shown as the fold change (mRNA FC) in the mRNA levels of OTC and CPS1 genes after treatment compared to an untreated control (DMSO) and the standard deviation (SD).

[6] = system: OTC; test: JAK inhibitors at 0.3 and 3 μM in primary human hepatocytes, OTC mRNA fold change; type: cell-based; details: fold change vs DMSO
Description: as §1

[7] = system: ARG1; test: RNA-seq of compound-treated primary human hepatocytes, ARG1 expression; type: cell-based; details: primary human hepatocytes; for Fold change (Log 2) vs untreated, ARG1 expression: RNA-seq (Table 7)
[8] = system: OTC; test: RNA-seq of compound-treated primary human hepatocytes, OTC expression; type: cell-based; details: primary human hepatocytes, RNA-seq
[9] = system: urea cycle genes; test: RNA-seq of primary human hepatocytes, compounds that modulate multiple urea cycle-related genes; type: cell-based; details: primary human hepatocytes, RNA-seq; for Up-regulated Genes: urea cycle-related genes significantly increased (Table 10)
Description: To identify small molecules that modulate urea cycle enzymes, primary human hepatocytes were prepared as a monoculture, and at least one small molecule compound was applied to the cells.
RNA-seq was performed to determine the effects of the compounds on the expression of urea cycle enzymes in hepatocytes. Fold change was calculated by dividing the level of expression in the cell system that had been perturbed by the level of expression in an unperturbed system. Changes in expression having a p-value ≤0.05 were considered significant.
Significance was defined as an FPKM ≥1, a log 2 (fold change) ≥0.5, and a q-value of ≤0.05 for selected gene target.

Row | Molecule | CPS1 mRNA FC ([5]; 0.3 uM) | CPS1 mRNA FC ([5]; 3 uM) | OTC mRNA FC ([6]; 0.3 uM) | OTC mRNA FC ([6]; 3 uM) | also measured
1 | O=C(Nc1c[nH]nc1-c1nc2ccc(CN3CCOCC3)cc2[nH]1)NC1CC1 [AT9283] | 1.53 | 1.05 | 1.56 | 0.56 | Relative SLC25A15 level vs Untreated (±Standard Deviation) ([1]; 1 μM): 1.78 ± 0.04; Relative SLC25A15 level vs Untreated (±Standard Deviation) ([1]; 3 μM): 2.56 ± 1.37; Relative SLC25A15 level vs Untreated (±Standard Deviation) ([1]; 10 μM): 2.94 ± 0.98; Relative CPS1 level vs Untreated (±Standard Deviation) ([2]; 3 μM): 2.35 ± 0.15; Relative CPS1 level vs Untreated (±Standard Deviation) ([2]; 10 μM): 1.53 ± 0.33; Relative ASS1 level vs Untreated (±Standard Deviation) ([3]; 3 μM): 1.40 ± 0.43; Relative ASS1 level vs Untreated (±Standard Deviation) ([3]; 10 μM): 2.48 ± 0.79; Relative NAGS level vs Untreated (±Standard Deviation) ([4]; 0.3 μM): 1.43 ± 0.38; Relative NAGS level vs Untreated (±Standard Deviation) ([4]; 1 μM): 1.49 ± 0.10; Relative NAGS level vs Untreated (±Standard Deviation) ([4]; 3 μM): 1.38 ± 0.07; Relative ARGI level vs Untreated (±Standard Deviation) ([7]; 10 μM, triplicate (Table 17, FIG. 9)): 1.70 ± 0.16
2 | Cc1cc(Nc2cc(CN3CCOCC3)c3nc(C)c(Cc4ccc(Cl)cc4F)n3n2)n[nH]1 [LY2784544/gandotinib] | 1.11 | 1.39 | 1.19 | 1.63 | –
3 | Cc1cc(Nc2cc(CN3CCOCC3)c3nc(C)c(Cc4ccc(Cl)cc4F)n3n2)n[nH]1 [LYS2784544] | 1.3 | 1.6 | 1.98 | 3.67 | –
4 | CCc1cc(O)c(F)cc1-c1ccc2c(-c3nc4c([nH]3)CCN(C(=O)c3cnc(N5CCCCC5)cn3)C4)n[nH]c2c1 [PF-06263276] | 1.05 | 1.03 | 1.16 | 1.46 | –
5 | NC(=O)c1cnc2[nH]ccc2c1N[C@@H]1[C@@H]2CC3C[C@H]1C[C@@](O)(C3)C2 [Peficitinib] | 1.31 | 2.28 | 2.38 | 3.49 | –
6 | CN1C/C=C/CCOc2cccc(c2)-c2ccnc(n2)Nc2cccc(c2)C1 [SB1317/TG02] | 1.05 | 1.03 | 1.05 | 0.64 | Relative SLC25A15 level vs Untreated (±Standard Deviation) ([1]; 0.3 μM): 1.36 ± 0.24; Relative SLC25A15 level vs Untreated (±Standard Deviation) ([1]; 3 μM): 2.70 ± 0.34; Relative SLC25A15 level vs Untreated (±Standard Deviation) ([1]; 10 μM): 2.71 ± 0.09; Relative ASS1 level vs Untreated (±Standard Deviation) ([3]; 1 μM): 1.34 ± 0.12; Relative ASS1 level vs Untreated (±Standard Deviation) ([3]; 3 μM): 1.90 ± 0.19; Relative ASS1 level vs Untreated (±Standard Deviation) ([3]; 10 μM): 1.92 ± 0.18
7 | O=C(Nc1ccc(-c2ccnc(Nc3ccc(N4CCOCC4)cc3)n2)cc1)C1CCCN1 (stereo not shown) [XL019] | 0.91 | 0.81 | 1.09 | 1.02 | –
8 | CCS(=O)(=O)N1CCN(c2ccc(Nc3ncc(C(N)=O)c(NC4CC4)n3)cc2)CC1 [cerdulatinib] | 1.58 | 2.39 | 2.56 | 1.89 | –
9 | N#CCC1(n2cc(-c3ncnc4[nH]ccc34)cn2)CN(C2CCN(C(=O)c3ccnc(C(F)(F)F)c3F)CC2)C1 [itacitinib] | 1.84 | 2.17 | 3.56 | 3.41 | –
10 | N#CC[C@H](C1CCCC1)n1cc(-c2ncnc3[nH]ccc23)cn1 [ruxolitinib] | 1.66 | 1.79 | 2.65 | 4.17 | –
11 | EGF: Epidermal Growth Factor, a polypeptide growth factor | – | – | – | – | CPS1 expression, Fold change (Log 2) vs untreated [2]: 1.93 Log 2; OTC expression, Fold change (Log 2) vs untreated [8]: 0.64 Log 2; number of urea cycle genes whose expression was significantly up-regulated [9]: three; Up-regulated Genes [9]: CPS1, OTC, ARG1; Fold change (Log 2) vs untreated, ARG1 expression [7]: 1.46 Log 2
12 | FGF: Fibroblast Growth Factor-acidic (FGF-acidic), also known as FGF-1 | – | – | – | – | CPS1 expression, Fold change (Log 2) vs untreated [2]: 1.72 Log 2; OTC expression, Fold change (Log 2) vs untreated [8]: 0.56 Log 2; number of urea cycle genes whose expression was significantly up-regulated [9]: three; Up-regulated Genes [9]: CPS1, OTC, ARG1; Fold change (Log 2) vs untreated, ARG1 expression [7]: 1.24 Log 2
